Data from the kinase profiling compilation of Christmann-Franck et al. (2016).

Experiments:
Assay in all cases: radiometric filter-binding kinase assay, Kinase HotSpot
Conditions in all cases: compound 0.5 µM; ATP 10 µM
ACVR1B (human) = ACVR1B (human) (UniProt P36896)
ACVRL1 (human) = ACVRL1 (human) (UniProt P37023)
ALK (human) = ALK (human) (UniProt Q9UM73)
AURKC (human) = AURKC (human) (UniProt Q9UQB9)
CAMK1D (human) = CAMK1D (human) (UniProt Q8IU85)
CDC42BPA (human) = CDC42BPA (human) (UniProt Q5VT25)
CSF1R (human) = CSF1R (human) (UniProt P07333)
Chain of CSF1R (human) (P07333 whole entry, looked up): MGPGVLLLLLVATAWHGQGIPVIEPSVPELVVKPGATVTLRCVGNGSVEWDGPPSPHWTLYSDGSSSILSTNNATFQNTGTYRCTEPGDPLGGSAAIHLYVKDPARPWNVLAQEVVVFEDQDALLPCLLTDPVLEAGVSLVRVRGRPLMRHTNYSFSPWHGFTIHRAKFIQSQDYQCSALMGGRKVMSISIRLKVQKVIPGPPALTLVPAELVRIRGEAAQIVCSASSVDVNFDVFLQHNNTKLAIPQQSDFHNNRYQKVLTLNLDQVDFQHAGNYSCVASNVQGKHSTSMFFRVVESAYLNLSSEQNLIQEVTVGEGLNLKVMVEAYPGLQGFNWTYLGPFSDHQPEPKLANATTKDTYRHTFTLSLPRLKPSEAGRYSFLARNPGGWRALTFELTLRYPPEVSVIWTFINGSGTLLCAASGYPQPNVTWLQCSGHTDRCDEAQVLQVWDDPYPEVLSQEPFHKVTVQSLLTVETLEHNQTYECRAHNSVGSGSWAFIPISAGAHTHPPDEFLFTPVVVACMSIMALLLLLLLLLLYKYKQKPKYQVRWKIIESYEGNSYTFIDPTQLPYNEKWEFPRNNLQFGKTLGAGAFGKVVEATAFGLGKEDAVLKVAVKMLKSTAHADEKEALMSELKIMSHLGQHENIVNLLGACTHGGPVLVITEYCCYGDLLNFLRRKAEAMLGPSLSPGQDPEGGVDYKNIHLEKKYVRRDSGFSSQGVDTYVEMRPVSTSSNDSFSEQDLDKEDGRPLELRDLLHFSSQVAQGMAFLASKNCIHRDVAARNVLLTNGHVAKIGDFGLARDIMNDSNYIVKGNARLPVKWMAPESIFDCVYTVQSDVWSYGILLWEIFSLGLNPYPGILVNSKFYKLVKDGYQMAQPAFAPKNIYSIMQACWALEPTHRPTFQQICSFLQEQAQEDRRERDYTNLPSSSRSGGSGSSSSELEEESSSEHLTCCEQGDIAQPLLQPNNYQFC

CSNK1A1 (human) = CSNK1A1 (human) (UniProt P48729)
Chain of CSNK1A1 (human) (P48729 whole entry, looked up): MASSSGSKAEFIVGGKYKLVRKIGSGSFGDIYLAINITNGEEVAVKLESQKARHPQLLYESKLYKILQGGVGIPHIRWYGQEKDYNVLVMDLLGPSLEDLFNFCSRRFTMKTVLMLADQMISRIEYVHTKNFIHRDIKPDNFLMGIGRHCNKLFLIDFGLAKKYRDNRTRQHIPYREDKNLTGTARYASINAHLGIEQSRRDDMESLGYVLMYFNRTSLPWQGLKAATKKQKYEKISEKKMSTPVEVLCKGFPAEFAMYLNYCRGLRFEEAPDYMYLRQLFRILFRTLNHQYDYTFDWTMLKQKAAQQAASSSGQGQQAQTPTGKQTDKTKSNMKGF

ERBB4 (human) = ERBB4 (human) (UniProt Q15303)
Chain of ERBB4 (human) (Q15303 whole entry, looked up): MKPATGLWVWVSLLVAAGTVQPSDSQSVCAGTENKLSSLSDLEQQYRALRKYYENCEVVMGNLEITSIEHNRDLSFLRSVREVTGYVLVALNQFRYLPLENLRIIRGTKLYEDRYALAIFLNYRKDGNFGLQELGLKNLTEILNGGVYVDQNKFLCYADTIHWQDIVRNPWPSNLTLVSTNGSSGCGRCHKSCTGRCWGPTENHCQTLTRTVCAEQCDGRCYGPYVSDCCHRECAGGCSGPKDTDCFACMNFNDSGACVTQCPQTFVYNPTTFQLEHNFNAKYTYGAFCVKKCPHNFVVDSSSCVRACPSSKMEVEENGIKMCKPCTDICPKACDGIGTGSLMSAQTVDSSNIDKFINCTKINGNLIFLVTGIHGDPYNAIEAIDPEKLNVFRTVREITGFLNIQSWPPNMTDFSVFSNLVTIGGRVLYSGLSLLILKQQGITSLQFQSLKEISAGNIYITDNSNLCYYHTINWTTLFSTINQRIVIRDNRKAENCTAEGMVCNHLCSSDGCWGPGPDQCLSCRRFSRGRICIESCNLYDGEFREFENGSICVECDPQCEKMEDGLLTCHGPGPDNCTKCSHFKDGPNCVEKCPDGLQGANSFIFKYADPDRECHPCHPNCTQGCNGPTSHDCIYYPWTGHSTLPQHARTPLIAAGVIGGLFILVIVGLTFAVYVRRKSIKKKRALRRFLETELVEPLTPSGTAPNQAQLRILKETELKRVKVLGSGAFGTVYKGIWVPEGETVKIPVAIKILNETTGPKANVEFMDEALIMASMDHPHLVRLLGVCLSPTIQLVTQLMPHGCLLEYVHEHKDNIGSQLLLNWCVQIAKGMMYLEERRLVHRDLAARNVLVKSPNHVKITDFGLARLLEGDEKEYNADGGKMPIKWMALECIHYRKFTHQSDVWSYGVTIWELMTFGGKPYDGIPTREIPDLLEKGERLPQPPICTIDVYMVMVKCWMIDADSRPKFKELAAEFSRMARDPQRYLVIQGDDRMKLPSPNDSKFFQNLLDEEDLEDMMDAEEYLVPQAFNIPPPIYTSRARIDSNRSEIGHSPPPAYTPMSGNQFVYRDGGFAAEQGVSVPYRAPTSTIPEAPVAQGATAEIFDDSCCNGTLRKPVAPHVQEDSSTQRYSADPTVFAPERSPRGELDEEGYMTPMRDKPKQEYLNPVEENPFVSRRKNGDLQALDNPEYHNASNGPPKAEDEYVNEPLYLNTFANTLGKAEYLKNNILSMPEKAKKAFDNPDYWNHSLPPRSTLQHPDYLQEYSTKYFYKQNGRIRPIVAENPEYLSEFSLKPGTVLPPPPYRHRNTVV

FER (human) = FER (human) (UniProt P16591)
FGFR3 (human) = FGFR3 (human) (UniProt P22607)
HIPK1 (human) = HIPK1 (human) (UniProt Q86Z02)
Chain of HIPK1 (human) (Q86Z02 whole entry, looked up): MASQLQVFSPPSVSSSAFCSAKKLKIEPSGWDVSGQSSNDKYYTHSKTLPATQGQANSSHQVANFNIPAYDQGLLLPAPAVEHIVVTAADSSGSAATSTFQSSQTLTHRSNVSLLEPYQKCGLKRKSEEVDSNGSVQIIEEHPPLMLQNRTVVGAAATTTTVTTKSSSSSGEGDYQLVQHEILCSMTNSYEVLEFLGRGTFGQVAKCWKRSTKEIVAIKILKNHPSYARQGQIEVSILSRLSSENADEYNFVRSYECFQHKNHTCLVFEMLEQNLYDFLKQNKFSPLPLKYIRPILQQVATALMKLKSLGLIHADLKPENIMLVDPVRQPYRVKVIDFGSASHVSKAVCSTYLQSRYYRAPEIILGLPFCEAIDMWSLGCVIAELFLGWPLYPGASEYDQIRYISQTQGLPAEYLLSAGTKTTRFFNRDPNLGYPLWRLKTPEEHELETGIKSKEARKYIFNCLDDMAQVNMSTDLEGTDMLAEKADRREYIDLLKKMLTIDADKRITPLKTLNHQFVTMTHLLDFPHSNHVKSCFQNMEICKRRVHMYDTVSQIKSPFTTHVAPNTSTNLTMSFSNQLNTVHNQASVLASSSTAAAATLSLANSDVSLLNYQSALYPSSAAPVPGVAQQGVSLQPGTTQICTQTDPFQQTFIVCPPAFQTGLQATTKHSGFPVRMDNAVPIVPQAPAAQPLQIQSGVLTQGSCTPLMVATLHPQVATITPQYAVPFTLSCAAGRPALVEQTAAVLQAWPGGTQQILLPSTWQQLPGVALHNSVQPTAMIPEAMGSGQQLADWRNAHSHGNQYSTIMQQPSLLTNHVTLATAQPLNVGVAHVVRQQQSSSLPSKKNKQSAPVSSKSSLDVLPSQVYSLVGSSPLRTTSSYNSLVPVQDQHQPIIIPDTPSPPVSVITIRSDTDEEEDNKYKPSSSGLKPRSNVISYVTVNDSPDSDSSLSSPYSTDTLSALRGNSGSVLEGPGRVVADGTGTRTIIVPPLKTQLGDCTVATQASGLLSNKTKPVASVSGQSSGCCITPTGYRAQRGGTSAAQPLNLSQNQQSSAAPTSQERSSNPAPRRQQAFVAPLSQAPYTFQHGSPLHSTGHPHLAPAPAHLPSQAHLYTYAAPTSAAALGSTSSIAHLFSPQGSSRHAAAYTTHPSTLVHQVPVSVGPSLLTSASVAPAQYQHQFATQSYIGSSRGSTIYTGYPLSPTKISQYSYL

HIPK3 (human) = HIPK3 (human) (UniProt Q9H422)
KDR (human) = KDR (human) (UniProt P35968)
LIMK1 (human) = LIMK1 (human) (UniProt P53667)
MAP2K2 (human) = MAP2K2 (human) (UniProt P36507)
MAP3K14 (human) = MAP3K14 (human) (UniProt Q99558)
MAP3K3 (human) = MAP3K3 (human) (UniProt Q99759)
MATK (human) = MATK (human) (UniProt P42679)
MELK (human) = MELK (human) (UniProt Q14680)
NEK7 (human) = NEK7 (human) (UniProt Q8TDX7)
NLK (human) = NLK (human) (UniProt Q9UBE8)
OXSR1 (human) = OXSR1 (human) (UniProt O95747)
PDGFRA (human) = PDGFRA (human) (UniProt P16234)
PHKG1 (human) = PHKG1 (human) (UniProt Q16816)
PIM3 (human) = PIM3 (human) (UniProt Q86V86)
PKN1 (human) = PKN1 (human) (UniProt Q16512)
PRKCH (human) = PRKCH (human) (UniProt P24723)
PRKX (human) = PRKX (human) (UniProt P51817)
PTK2 (human) = PTK2 (human) (UniProt Q05397)
RET (human) = RET (human) (UniProt P07949)
RPS6KA4 KD2 (human) = RPS6KA4 KD2 (human) (UniProt O75676)
RPS6KB2 (human) = RPS6KB2 (human) (UniProt Q9UBS0)
SLK (human) = SLK (human) (UniProt Q9H2G2)
STK24 (human) = STK24 (human) (UniProt Q9Y6E0)
Chain of STK24 (human) (Q9Y6E0 whole entry, looked up): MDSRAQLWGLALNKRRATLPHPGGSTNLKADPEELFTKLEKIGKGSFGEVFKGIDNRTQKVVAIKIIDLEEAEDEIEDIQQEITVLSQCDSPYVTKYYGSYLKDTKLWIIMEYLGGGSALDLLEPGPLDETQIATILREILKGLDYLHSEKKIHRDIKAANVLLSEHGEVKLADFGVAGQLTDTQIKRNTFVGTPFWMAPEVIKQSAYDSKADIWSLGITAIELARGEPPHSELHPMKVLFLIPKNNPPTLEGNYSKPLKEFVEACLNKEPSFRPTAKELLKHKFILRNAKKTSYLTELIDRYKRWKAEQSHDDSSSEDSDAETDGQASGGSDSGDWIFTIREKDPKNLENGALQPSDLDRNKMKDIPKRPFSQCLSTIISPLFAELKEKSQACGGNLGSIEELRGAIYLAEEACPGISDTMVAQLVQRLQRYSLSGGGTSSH

TAOK3 (human) = TAOK3 (human) (UniProt Q9H2K8)
TEC (human) = TEC (human) (UniProt P42680)
TNK2 (human) = TNK2 (human) (UniProt Q07912)
ULK1 (human) = ULK1 (human) (UniProt O75385)
VRK1 (human) = VRK1 (human) (UniProt Q99986)
Chain of VRK1 (human) (Q99986 whole entry, looked up): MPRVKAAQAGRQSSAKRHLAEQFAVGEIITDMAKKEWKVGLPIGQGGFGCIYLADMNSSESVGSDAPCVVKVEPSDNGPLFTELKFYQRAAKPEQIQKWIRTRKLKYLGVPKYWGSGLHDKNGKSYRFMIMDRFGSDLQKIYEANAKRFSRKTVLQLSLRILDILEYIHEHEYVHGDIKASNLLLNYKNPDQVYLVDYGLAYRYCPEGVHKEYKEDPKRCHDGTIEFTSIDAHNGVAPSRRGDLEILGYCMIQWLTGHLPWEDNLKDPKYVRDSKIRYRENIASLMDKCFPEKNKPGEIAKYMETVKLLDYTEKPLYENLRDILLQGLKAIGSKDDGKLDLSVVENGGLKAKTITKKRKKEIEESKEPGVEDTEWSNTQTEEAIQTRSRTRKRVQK

Chain of CAMK1D (human) (Q8IU85 whole entry, looked up): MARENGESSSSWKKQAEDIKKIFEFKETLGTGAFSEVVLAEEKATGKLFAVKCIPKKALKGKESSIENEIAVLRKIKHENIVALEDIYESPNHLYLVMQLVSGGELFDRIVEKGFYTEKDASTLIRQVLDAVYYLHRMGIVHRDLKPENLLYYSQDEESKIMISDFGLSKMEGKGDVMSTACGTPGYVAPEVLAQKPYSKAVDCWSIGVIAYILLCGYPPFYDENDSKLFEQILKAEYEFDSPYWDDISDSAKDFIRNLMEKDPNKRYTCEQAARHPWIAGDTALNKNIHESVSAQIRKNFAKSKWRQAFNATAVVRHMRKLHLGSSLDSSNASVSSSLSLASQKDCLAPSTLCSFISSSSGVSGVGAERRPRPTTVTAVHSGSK

| Compound | residual activity (ACVR1B (human)) [%] | residual activity (ACVRL1 (human)) [%] | residual activity (ALK (human)) [%] | residual activity (AURKC (human)) [%] | residual activity (CAMK1D (human)) [%] | residual activity (CDC42BPA (human)) [%] | residual activity (ERBB4 (human)) [%] | residual activity (FER (human)) [%] | residual activity (FGFR3 (human)) [%] | residual activity (HIPK1 (human)) [%] | residual activity (HIPK3 (human)) [%] | residual activity (KDR (human)) [%] | residual activity (LIMK1 (human)) [%] | residual activity (MAP2K2 (human)) [%] | residual activity (MAP3K14 (human)) [%] | residual activity (MAP3K3 (human)) [%] | residual activity (MATK (human)) [%] | residual activity (MELK (human)) [%] | residual activity (NEK7 (human)) [%] | residual activity (NLK (human)) [%] | other results |
| --- | --- | --- | --- | --- | --- | --- | --- | --- | --- | --- | --- | --- | --- | --- | --- | --- | --- | --- | --- | --- | --- |
| O=c1cc(N2CCOCC2)oc2c1ccc1ccccc12 | 103 | 100 | 104 | 107 | 91.1 | 87.6 | 101 | 91.2 | 98.2 | 102 | 107 | 86.8 | 98 | 100 | 81.2 | 102 | 90.7 | 103 | 96.6 | 103 | residual activity (CSF1R (human)): 103%; residual activity (CSNK1A1 (human)): 115%; residual activity (OXSR1 (human)): 108%; residual activity (PDGFRA (human)): 83.9%; residual activity (PHKG1 (human)): 98.2%; residual activity (PIM3 (human)): 95.4%; residual activity (PKN1 (human)): 106%; residual activity (PRKCH (human)): 94.7%; residual activity (PRKX (human)): 96.6%; residual activity (PTK2 (human)): 108%; residual activity (RET (human)): 99.8%; residual activity (RPS6KA4 KD2 (human)): 99.4%; residual activity (RPS6KB2 (human)): 99.6%; residual activity (SLK (human)): 102%; residual activity (STK24 (human)): 103%; residual activity (TAOK3 (human)): 98.7%; residual activity (TEC (human)): 150%; residual activity (TNK2 (human)): 100%; residual activity (ULK1 (human)): 96.1%; residual activity (VRK1 (human)): 93.3% |
| CCN(CC)C(=O)c1ccc(Nc2nc(OCC3CCCCC3)c3nc[nH]c3n2)cc1 | 101 | 106 | 74.9 | 20.7 | 101 | 90.7 | 91 | 42 | 66.9 | 104 | 96.4 | 76.5 | 35.2 | 94 | 132 | 47.3 | 95.6 | 76.3 | 103 | 94.5 | residual activity (CSF1R (human)): 5.73%; residual activity (CSNK1A1 (human)): 104%; residual activity (OXSR1 (human)): 99%; residual activity (PDGFRA (human)): 66.6%; residual activity (PHKG1 (human)): 85.9%; residual activity (PIM3 (human)): 109%; residual activity (PKN1 (human)): 78.9%; residual activity (PRKCH (human)): 86.7%; residual activity (PRKX (human)): 93.4%; residual activity (PTK2 (human)): 76.9%; residual activity (RET (human)): 7.65%; residual activity (RPS6KA4 KD2 (human)): 79.8%; residual activity (RPS6KB2 (human)): 102%; residual activity (SLK (human)): 71.2%; residual activity (STK24 (human)): 84.5%; residual activity (TAOK3 (human)): 74.2%; residual activity (TEC (human)): 63%; residual activity (TNK2 (human)): 21.4%; residual activity (ULK1 (human)): 77.7%; residual activity (VRK1 (human)): 93.1% |
| O=C(Nc1cccc(Nc2nccc(Nc3cccc(C(F)(F)F)c3)n2)c1)C1CC1 | 110 | 84.6 | 99.8 | 80.8 | 100 | 100 | 103 | 93 | 95 | 98.7 | 104 | 91.6 | 45.1 | 89.2 | 109 | 97.9 | 101 | 101 | 116 | 101 | residual activity (CSF1R (human)): 63.1%; residual activity (CSNK1A1 (human)): 95.8%; residual activity (OXSR1 (human)): 78.9%; residual activity (PDGFRA (human)): 89.3%; residual activity (PHKG1 (human)): 98.3%; residual activity (PIM3 (human)): 106%; residual activity (PKN1 (human)): 93.3%; residual activity (PRKCH (human)): 98.6%; residual activity (PRKX (human)): 94.6%; residual activity (PTK2 (human)): 89.1%; residual activity (RET (human)): 88.6%; residual activity (RPS6KA4 KD2 (human)): 104%; residual activity (RPS6KB2 (human)): 96%; residual activity (SLK (human)): 92.9%; residual activity (STK24 (human)): 98.3%; residual activity (TAOK3 (human)): 110%; residual activity (TEC (human)): 158%; residual activity (TNK2 (human)): 66.5%; residual activity (ULK1 (human)): 105%; residual activity (VRK1 (human)): 88.2% |
| O=S(=O)(c1cccc2cnccc12)N1CCCNCC1 | 100 | 111 | 119 | 97.4 | 91.5 | 104 | 101 | 103 | 94.4 | 96.8 | 107 | 86.9 | 100 | 117 | 97.7 | 89.3 | 99.6 | 78.6 | 97.5 | 97.3 | residual activity (CSF1R (human)): 97.9%; residual activity (PHKG1 (human)): 90.8%; residual activity (PIM3 (human)): 91.4%; residual activity (PKN1 (human)): 40.5%; residual activity (PRKCH (human)): 84%; residual activity (PRKX (human)): 23.5%; residual activity (PTK2 (human)): 93.9%; residual activity (RET (human)): 97.8%; residual activity (RPS6KA4 KD2 (human)): 81.8%; residual activity (RPS6KB2 (human)): 81.9%; residual activity (SLK (human)): 95.8%; residual activity (STK24 (human)): 70.2%; residual activity (TAOK3 (human)): 97.3%; residual activity (TEC (human)): 109%; residual activity (TNK2 (human)): 89.4%; residual activity (ULK1 (human)): 103%; residual activity (VRK1 (human)): 87.6% |
| COc1ccc(COc2ccc(Cc3cnc(N)nc3N)cc2OC)cc1 | 97.8 | 101 | 97.4 | 97.5 | 93 | 94.4 | 110 | 93.4 | 105 | 110 | 102 | 109 | 94.5 | 101 | 81.8 | 97.8 | 94.8 | 102 | 100 | 105 | residual activity (CSNK1A1 (human)): 97.9%; residual activity (OXSR1 (human)): 103%; residual activity (PDGFRA (human)): 99.4%; residual activity (PHKG1 (human)): 95.3%; residual activity (PIM3 (human)): 95.9%; residual activity (PKN1 (human)): 101%; residual activity (PRKCH (human)): 88.6%; residual activity (PRKX (human)): 105%; residual activity (PTK2 (human)): 95.5%; residual activity (RET (human)): 108%; residual activity (RPS6KA4 KD2 (human)): 107%; residual activity (RPS6KB2 (human)): 100%; residual activity (SLK (human)): 97.7%; residual activity (STK24 (human)): 93.5%; residual activity (TAOK3 (human)): 102%; residual activity (TEC (human)): 114%; residual activity (TNK2 (human)): 105%; residual activity (ULK1 (human)): 99.7%; residual activity (VRK1 (human)): 91.4% |
